Measured values: patent US7064124B2, “NF-κB inhibitor containing substituted benzoic acid derivative as active ingredient” (Daiichi Suntory Pharma Co., Ltd., priority 2001, dated 2006)

SMILES	melting point [°C]
CC(=O)Oc1ccc(CC2=C(C)C(=O)C(C)=C(C)C2=O)cc1C(=O)Nc1ccc(C(F)(F)F)cc1 [Example 234, N-[5-(3,5,6-Trimethyl-1,4-benzoquinon-2-yl)methyl-2-acetoxybenzoyl]-4-trifluoromethylaniline]	180 to 181
COC1=C(OC)C(=O)C(Cc2ccc(OC(C)=O)c(C(=O)Nc3ccc(F)cc3)c2)=C(C)C1=O [Example 141, N-[5-(5,6-Dimethoxy-3-methyl-1,4-benzoquinon-2-yl)methyl-2-acetoxybenzoyl]-4-fluoroaniline]	128.5 to 130.5
COC1=C(OC)C(=O)C(Cc2ccc(OC(C)=O)c(C(=O)Nc3ccc(C(=O)O)cn3)c2)=C(C)C1=O [Example 197, N-(5-Hydroxycarbonylpyridin-2-yl)-5-(5,6-dimethoxy-3-methyl-1,4-benzoquinon-2-yl)methyl-2-acetoxybenzamide]	123 to 125
COC1=C(OC)C(=O)C(Cc2ccc(OCc3cccnc3)c(C(=O)Nc3ccc(C(F)(F)F)cc3)c2)=C(C)C1=O [Example 172, N-[5-(5,6-Dimethoxy-3-methyl-1,4-benzoquinon-2-yl)methyl-2-(3-pyridylmethyloxy)benzoyl]-4-trifluoromethylaniline]	173 to 176
CC(=O)Oc1ccc(CC2=C(C)C(=O)C(C)=C(C)C2=O)cc1C(=O)O [Example 233, 5-(3,5,6-Trimethyl-1,4-benzoquinon-2-yl)methyl-2-acetoxybenzoic acid]	157 to 159.5
COC1=C(OC)C(=O)C(Cc2ccc(OC(C)=O)c(C(=O)Nc3ccccc3C(F)(F)F)c2)=C(C)C1=O [Example 145, N-[5-(5,6-Dimethoxy-3-methyl-1,4-benzoquinon-2-yl)methyl-2-acetoxybenzoyl]-2-trifluoromethylaniline]	57.5 to 60
COC1=C(OC)C(=O)C(Cc2cccc(C(=O)Nc3ccc(C(F)(F)F)cc3)c2O)=C(C)C1=O [Example 166, N-[3-(5,6-Dimethoxy-3-methyl-1,4-benzoquinon-2-yl)methyl-2-hydroxybenzoyl]-4-trifluoromethylaniline]	129 to 131.5
COC1=C(OC)C(=O)C(Cc2ccc(OC(C)=O)c(C(=O)Nc3ccc(C(=O)O)cc3)c2)=C(C)C1=O [Example 189, N-[5-(5,6-Dimethoxy-3-methyl-1,4-benzoquinon-2-yl)methyl-2-acetoxybenzoyl]-4-aminobenzoic acid]	199 to 201.5
COC1=C(OC)C(=O)C(Cc2cccc(C(=O)Nc3ccc(S(=O)(=O)C(F)(F)F)cc3)c2OC(C)=O)=C(C)C1=O [Example 175, N-[3-(5,6-Dimethoxy-3-methyl-1,4-benzoquinon-2-yl)methyl-2-acetoxybenzoyl]-4-(trifluoromethylsulfonyl)aniline]	87 to 89
COC1=C(OC)C(=O)C(Cc2ccc(OC(C)=O)c(C(=O)Nc3ccccc3[N+](=O)[O-])c2)=C(C)C1=O [Example 153, N-[5-(5,6-Dimethoxy-3-methyl-1,4-benzoquinon-2-yl)methyl-2-acetoxybenzoyl]-2-nitroaniline]	97.5 to 100
COC1=C(OC)C(=O)C(Cc2ccc(OC(C)=O)c(C(=O)Nc3cccc([N+](=O)[O-])c3)c2)=C(C)C1=O [Example 143, N-[5-(5,6-Dimethoxy-3-methyl-1,4-benzoquinon-2-yl)methyl-2-acetoxybenzoyl]-3-nitroaniline]	152 to 153.5
COC1=C(OC)C(=O)C(Cc2ccc(OC(C)=O)c(C(=O)Nc3cccc(C(F)(F)F)c3)c2)=C(C)C1=O [Example 151, N-[5-(5,6-Dimethoxy-3-methyl-1,4-benzoquinon-2-yl)methyl-2-acetoxybenzoyl]-3-trifluoromethylaniline]	98 to 100
COC1=C(OC)C(=O)C(Cc2ccc(C(=O)Nc3cccnc3Cl)c(OC(C)=O)c2)=C(C)C1=O [Example 132, N-(2-Chloropyridin-3-yl)-4-(5,6-dimethoxy-3-methyl-1,4-benzoquinon-2-yl)methyl-2-acetoxybenzamide]	113.5 to 115.1
CC(=O)Oc1ccc(CC2=C(C)C(=O)C(C)=C(C)C2=O)cc1C(=O)Nc1cccnc1Cl [Example 236, N-(2-Chloropyridin-3-yl)-5-(3,5,6-trimethyl-1,4-benzoquinon-2-yl)methyl-2-acetoxybenzamide]	130 to 131
COC1=C(OC)C(=O)C(Cc2ccc(OC(C)=O)c(C(=O)NC3CC3)c2)=C(C)C1=O [Example 159, N-Cyclopropyl-5-(5,6-dimethoxy-3-methyl-1,4-benzoquinon-2-yl)methyl-2-acetoxybenzamide]	95.5 to 98
COC1=C(OC)C(=O)C(Cc2ccc(C(=O)Nc3cccnc3)c(OC(C)=O)c2)=C(C)C1=O [Example 138, N-(Pyridin-3-yl)-4-(5,6-dimethoxy-3-methyl-1,4-benzoquinon-2-yl)methyl-2-acetoxybenzamide]	158.2 to 160
COC1=C(OC)C(=O)C(Cc2ccc(OC(C)=O)c(C(=O)Nc3ccnc(OC)c3)c2)=C(C)C1=O [Example 230, N-(2-Methoxypyridin-4-yl)-5-(5,6-dimethoxy-3-methyl-1,4-benzoquinon-2-yl)methyl-2-acetoxybenzamide]	138 to 140.5
COC1=C(OC)C(=O)C(Cc2ccc(OC(C)=O)c(C(=O)NC3CCCCC3)c2)=C(C)C1=O [Example 161, N-Cyclohexyl-5-(5,6-dimethoxy-3-methyl-1,4-benzoquinon-2-yl)methyl-2-acetoxybenzamide]	137.5 to 140

Results, then the compound that gave them:

melting point [°C]	SMILES
111 to 112	COC1=C(OC)C(=O)C(Cc2ccc(O)c(C(=O)NC3CC3)c2)=C(C)C1=O [Example 160, N-Cyclopropyl-5-(5,6-dimethoxy-3-methyl-1,4-benzoquinon-2-yl)methyl-2-hydroxybenzamide]
218 to 220.5	COC1=C(OC)C(=O)C(Cc2ccc(O)c(C(=O)Nc3ccnc(OC)c3)c2)=C(C)C1=O [Example 231, N-(2-Methoxypyridin-4-yl)-5-(5,6-dimethoxy-3-methyl-1,4-benzoquinon-2-yl)methyl-2-hydroxybenzamide]
238 to 241	COC1=C(OC)C(=O)C(Cc2ccc(O)c(C(=O)Nc3ccc(C(=O)O)cn3)c2)=C(C)C1=O [Example 198, N-(5-Hydroxycarbonylpyridin-2-yl)-5-(5,6-dimethoxy-3-methyl-1,4-benzoquinon-2-yl)methyl-2-hydroxybenzamide]
119 to 121.5	COC1=C(OC)C(=O)C(Cc2ccc(O)c(C(=O)Nc3ccc(-n4ccnc4)cc3)c2)=C(C)C1=O [Example 209, N-[5-(5,6-Dimethoxy-3-methyl-1,4-benzoquinon-2-yl)methyl-2-hydroxybenzoyl]-4-(imidazol-1-yl)aniline]
135 to 137	COC1=C(OC)C(=O)C(Cc2ccc(OCc3cccnc3)c(C(=O)Nc3cccnc3)c2)=C(C)C1=O [Example 169, N-(Pyridin-3-yl)-5-(5,6-dimethoxy-3-methyl-1,4-benzoquinon-2-yl)methyl-2-(3-pyridylmethyloxy)benzamide]
245 to 247	CC1=C(C)C(=O)C(Cc2ccc(O)c(C(=O)Nc3ccncc3)c2)=C(C)C1=O [Example 238, N-(Pyridin-4-yl)-5-(3,5,6-trimethyl-1,4-benzoquinon-2-yl)methyl-2-hydroxybenzamide]
116 to 119	COC1=C(OC)C(=O)C(Cc2ccc(OCc3cccnc3)c(C(=O)Nc3ccncc3)c2)=C(C)C1=O [Example 168, N-(Pyridin-4-yl)-5-(5,6-dimethoxy-3-methyl-1,4-benzoquinon-2-yl)methyl-2-(3-pyridylmethyloxy)benzamide]
119 to 121.5	COC1=C(OC)C(=O)C(Cc2ccc(O)c(C(=O)Nc3ccc(OC)nc3OC)c2)=C(C)C1=O [Example 183, N-(2,6-Dimethoxypyridin-3-yl)-5-(5,6-dimethoxy-3-methyl-1,4-benzoquinon-2-yl)methyl-2-hydroxybenzamide]
257 to 260	COC1=C(OC)C(=O)C(Cc2ccc(O)c(C(=O)Nc3ccc(C(=O)O)cc3)c2)=C(C)C1=O [Example 190, N-[5-(5,6-Dimethoxy-3-methyl-1,4-benzoquinon-2-yl)methyl-2-hydroxybenzoyl]-4-aminobenzoic acid]
186.9 to 187.5	COC1=C(OC)C(=O)C(Cc2ccc(C(=O)Nc3ccc(S(=O)(=O)C(F)(F)F)cc3)c(O)c2)=C(C)C1=O [Example 137, N-[4-(5,6-Dimethoxy-3-methyl-1,4-benzoquinon-2-yl)methyl-2-hydroxybenzoyl]-4-(trifluoromethylsulfonyl)aniline]
182 to 185.5	COC1=C(OC)C(=O)C(Cc2ccc(O)c(C(=O)Nc3ccc(-c4ccn[nH]4)cc3)c2)=C(C)C1=O [Example 211, N-[5-(5,6-Dimethoxy-3-methyl-1,4-benzoquinon-2-yl)methyl-2-hydroxybenzoyl]-4-(1H-pyrazol-3-yl)aniline]
155 to 156	COC1=C(OC)C(=O)C(Cc2ccc(O)c(C(=O)Nc3ccccc3[N+](=O)[O-])c2)=C(C)C1=O [Example 154, N-[5-(5,6-Dimethoxy-3-methyl-1,4-benzoquinon-2-yl)methyl-2-hydroxybenzoyl]-2-nitroaniline]
153 to 154	COC1=C(OC)C(=O)C(Cc2ccc(O)c(C(=O)Nc3cccc([N+](=O)[O-])c3)c2)=C(C)C1=O [Example 144, N-[5-(5,6-Dimethoxy-3-methyl-1,4-benzoquinon-2-yl)methyl-2-hydroxybenzoyl]-3-nitroaniline]
138.1 to 139.7	COC1=C(OC)C(=O)C(Cc2ccc(C(=O)Nc3cccnc3)c(O)c2)=C(C)C1=O [Example 139, N-(Pyridin-3-yl)-4-(5,6-dimethoxy-3-methyl-1,4-benzoquinon-2-yl)methyl-2-hydroxybenzamide]
147 to 150	COC1=C(OC)C(=O)C(Cc2cccc(C(=O)Nc3ccc(Cl)cc3Cl)c2O)=C(C)C1=O [Example 177, N-[3-(5,6-Dimethoxy-3-methyl-1,4-benzoquinon-2-yl)methyl-2-hydroxybenzoyl]-2,4-dichloroaniline]
107 to 109	COC1=C(OC)C(=O)C(Cc2ccc(O)c(C(=O)NC3CCCCC3)c2)=C(C)C1=O [Example 162, N-Cyclohexyl-5-(5,6-dimethoxy-3-methyl-1,4-benzoquinon-2-yl)methyl-2-hydroxybenzamide]
